Source: ChEMBL document CHEMBL1126435, “DuP 747: a new, potent, kappa opioid analgesic. Synthesis and pharmacology1” (Bioorg Med Chem Lett, 1992)

Legend:
[1] = molecular target: Sigma non-opioid intracellular receptor 1 (Homo sapiens, UniProt Q99720)
Description: Compound was evaluated for the binding affinity to sigma opioid receptor

[2] = test system: Rattus norvegicus; assay: Compound was evaluated for analgesic activity by rat tail-flick assay following peroral administration; conditions: po
[3] = test system: Rattus norvegicus; assay: Compound was evaluated for analgesic activity by rat tail-flick assay following subcutaneous administration; conditions: sc

Chain of Sigma non-opioid intracellular receptor 1 (Q99720 whole entry): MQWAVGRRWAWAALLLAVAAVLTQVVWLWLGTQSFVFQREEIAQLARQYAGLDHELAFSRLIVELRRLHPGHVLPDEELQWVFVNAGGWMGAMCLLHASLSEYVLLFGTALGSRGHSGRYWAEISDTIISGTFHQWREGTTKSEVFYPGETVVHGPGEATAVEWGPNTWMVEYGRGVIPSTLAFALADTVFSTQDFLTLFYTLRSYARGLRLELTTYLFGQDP

Row | SMILES | Ki [1] [µM] | ED50 [2] [mg/kg] | ED50 [3] [mg/kg]
1 | COc1cccc2c1CC[C@H](N1CCCC1)[C@H]2N(C)C(=O)Cc1ccc(Cl)c(Cl)c1 | 5.16 | – | –
2 | CN1CC[C@]23c4c5ccc(O)c4O[C@H]2[C@@H](O)C=C[C@H]3[C@H]1C5 [MORPHINE] | – | 54 | 4.9
